Assay results reported in patent publication US5843889A, “Glycopeptide antibiotic derivatives” (Eli Lilly and Company, priority 1997, dated 1998).
≈ marks a conversion by molar mass, not a printed value.

What was measured:
Assay type in all cases: cell-based
[1] = test system: Entercoccus faecium 180-1; test: MIC, standard broth micro-dilution assay
Procedure: (§1) The MIC's were determined using a standard broth micro-dilution assay.

[2] = test system: Entercoccus faecium 180; test: MIC, standard broth micro-dilution assay
Procedure: as §1

[3] = test system: Escherichia coli EC14; test: MIC, standard broth micro-dilution assay
Procedure: as §1

[4] = test system: Staphylococcus aureus 446; test: MIC, standard broth micro-dilution assay
Procedure: as §1

[5] = test system: Staphylococcus aureus 447; test: MIC, standard broth micro-dilution assay
Procedure: as §1

[6] = test system: Staphylococcus aureus 489; test: MIC, standard broth micro-dilution assay
Procedure: as §1

[7] = test system: Staphylococcus aureus 491; test: MIC, standard broth micro-dilution assay
Procedure: as §1

[8] = test system: Staphylococcus aureus SA1199A; test: MIC, standard broth micro-dilution assay
Procedure: as §1

[9] = test system: Staphylococcus aureus SA1199; test: MIC, standard broth micro-dilution assay
Procedure: as §1

[10] = test system: Staphylococcus aureus X400; test: MIC, standard broth micro-dilution assay
Procedure: as §1

[11] = test system: Staphylococcus aureus X778; test: MIC, standard broth micro-dilution assay
Procedure: as §1

[12] = test system: Staphylococcus epidermidis 270; test: MIC, standard broth micro-dilution assay
Procedure: as §1

[13] = test system: Staphylococcus haemolyticus 105; test: MIC, standard broth micro-dilution assay
Procedure: as §1

[14] = test system: Staphylococcus haemolyticus 415; test: MIC, standard broth micro-dilution assay
Procedure: as §1

[15] = test system: Streptococcus pneumoniae P1; test: MIC, standard broth micro-dilution assay
Procedure: as §1

[16] = test system: Streptococcus pyogenes C203; test: MIC, standard broth micro-dilution assay
Procedure: as §1

[17] = test system: Staphylococcus aureus S13E
Procedure: as §1

[18] = test system: Staphylococcus aureus SA1199B
Procedure: as §1

[19] = test system: Entercoccus faecalis 2041; test: MIC, standard broth micro-dilution assay
Procedure: (§2) The formula I compounds have in vitro and in vivo activity against Gram-positive pathogenic bacteria. The MIC's were determined using a standard broth micro-dilution assay.

[20] = test system: Entercoccus faecalis 276; test: MIC, standard broth micro-dilution assay
Procedure: as §2

[21] = test system: Entercoccus gallinarum 245; test: MIC, standard broth micro-dilution assay
Procedure: as §2

[22] = test system: Pedicoccus acidilacti; test: MIC, agar dilution on brain-heart infusion agar; settings: Pedioccccus acidilacti (mean of 10)
[23] = test system: Pediococcus pentosaceus; test: MIC, agar dilution on brain-heart infusion agar; settings: Pediococcus pentosaceus (mean of 2)
[24] = test system: Leuconostoc lactis; test: MIC, agar dilution on brain-heart infusion agar; settings: Leuconostoc lactis (mean of 2)
[25] = test system: Leuconostoc mesenteroides; test: MIC, agar dilution on brain-heart infusion agar; settings: Leuconostoc mesenteroides (mean of 4)
[26] = test system: Lactobacillus confusus; test: MIC, agar dilution on brain-heart infusion agar
[27] = test system: vancomycin-resistant enterococci (Enterococcus faecium and Enterococcus faecalis); test: mean geometric MIC, broth micro-dilution; settings: 24-hour incubation
[28] = test system: vancomycin-susceptibie enterococci (Enterococcus faecium and Enterococcus faecalis); test: mean geometric MIC, broth micro-dilution; settings: 24-hour incubation
[29] = test system: Leuconostoc pseudomesenteroides; test: MIC, agar dilution on brain-heart infusion agar
[30] = test system: Leuconostoc citreum; test: MIC, agar dilution on brain-heart infusion agar

| Structure (SMILES) | MIC [1] | MIC [2] | MIC [3] | MIC [4] | MIC [5] | MIC [6] | MIC [7] | MIC [8] | MIC [9] | MIC [10] | MIC [11] | MIC [12] | MIC [19] | MIC [20] | MIC [21] | MIC [22] | MIC [23] | MIC [24] | MIC [25] | MIC [26] | other results |
| --- | --- | --- | --- | --- | --- | --- | --- | --- | --- | --- | --- | --- | --- | --- | --- | --- | --- | --- | --- | --- | --- |
| CNC(CC(C)C)C(=O)NC1C(=O)NC(CC(N)=O)C(=O)NC2C(=O)NC3C(=O)NC(C(=O)NC(C(=O)O)c4cc(O)cc(O)c4-c4cc3ccc4O)C(OC3CC(C)(N)C(O)C(C)O3)c3ccc(c(Cl)c3)Oc3cc2cc(c3OC2OC(CO)C(O)C(O)C2OC2CC(C)(NCc3ccc(SC)cc3)C(O)C(C)O2)Oc2ccc(cc2Cl)C1O (stereo not drawn) [Compound 41, 4-thiomethylbenzyl] | ≤ 0.06 µg/mL | 0.25 µg/mL (≈ 0.145 µM) | > 64 µg/mL | 2 µg/mL (≈ 1.16 µM) | 0.25 µg/mL (≈ 0.145 µM) | ≤ 0.06 µg/mL | 0.5 µg/mL (≈ 0.289 µM) | ≤ 0.06 µg/mL | ≤ 0.06 µg/mL | ≤ 0.06 µg/mL | 0.125 µg/mL (≈ 0.0723 µM) | 0.25 µg/mL (≈ 0.145 µM) | ≤ 0.06 µg/mL | ≤ 0.06 µg/mL | ≤ 0.06 µg/mL | 71 µg/mL (≈ 41.1 µM) | 91 µg/mL (≈ 52.6 µM) | 91 µg/mL (≈ 52.6 µM) | 91 µg/mL (≈ 52.6 µM) | 64 µg/mL (≈ 37 µM) | MIC [13]: 2 µg/mL (≈ 1.16 µM); MIC [14]: 4 µg/mL (≈ 2.31 µM); MIC [15]: ≤ 0.06 µg/mL; MIC [16]: ≤ 0.06 µg/mL; MIC [17]: ≤ 0.06 µg/mL; MIC [18]: 0.25 µg/mL (≈ 0.145 µM) |
| CNC(CC(C)C)C(=O)NC1C(=O)NC(CC(N)=O)C(=O)NC2C(=O)NC3C(=O)NC(C(=O)NC(C(=O)O)c4cc(O)cc(O)c4-c4cc3ccc4O)C(OC3CC(C)(N)C(O)C(C)O3)c3ccc(c(Cl)c3)Oc3cc2cc(c3OC2OC(CO)C(O)C(O)C2OC2CC(C)(NCC(C)=Cc3ccc(C(C)(C)C)cc3)C(O)C(C)O2)Oc2ccc(cc2Cl)C1O (stereo not drawn) [Compound 42, 2,3-[2-methyl-3-[4-t-butylphenyl]]propenyl] | ≤ 0.06 µg/mL | 0.25 µg/mL (≈ 0.141 µM) | > 64 µg/mL | 1 µg/mL (≈ 0.562 µM) | 0.5 µg/mL (≈ 0.281 µM) | 0.5 µg/mL (≈ 0.281 µM) | 0.5 µg/mL (≈ 0.281 µM) | ≤ 0.06 µg/mL | 1 µg/mL (≈ 0.562 µM) | 1 µg/mL (≈ 0.562 µM) | 1 µg/mL (≈ 0.562 µM) | 0.5 µg/mL (≈ 0.281 µM) | 0.125 µg/mL (≈ 0.0703 µM) | 8 µg/mL (≈ 4.5 µM) | 1 µg/mL (≈ 0.562 µM) |  |  |  |  |  | MIC [13]: 2 µg/mL (≈ 1.12 µM); MIC [14]: 1 µg/mL (≈ 0.562 µM); MIC [15]: ≤ 0.06 µg/mL; MIC [16]: ≤ 0.06 µg/mL; MIC [17]: 0.5 µg/mL (≈ 0.281 µM); MIC [18]: 2 µg/mL (≈ 1.12 µM) |
| CNC(CC(C)C)C(=O)NC1C(=O)NC(CC(N)=O)C(=O)NC2C(=O)NC3C(=O)NC(C(=O)NC(C(=O)O)c4cc(O)cc(O)c4-c4cc3ccc4O)C(OC3CC(C)(N)C(O)C(C)O3)c3ccc(c(Cl)c3)Oc3cc2cc(c3OC2OC(CO)C(O)C(O)C2OC2CC(C)(NCc3cccc(Oc4cccc(C(F)(F)F)c4)c3)C(O)C(C)O2)Oc2ccc(cc2Cl)C1O (stereo not drawn) [Compound 111] |  |  |  |  |  |  |  |  |  |  |  |  | ≤ 0.06 µg/mL | 0.5 µg/mL (≈ 0.271 µM) | 4 µg/mL (≈ 2.17 µM) |  |  |  |  |  | mean geometric MIC, Vancomycin Resistant Strains [27]: 0.84 µg/mL; mean geometric MIC, Vancomycin Sensitive Strains [28]: 0.054 µg/mL |
| CNC(CC(C)C)C(=O)NC1C(=O)NC(CC(N)=O)C(=O)NC2C(=O)NC3C(=O)NC(C(=O)NC(C(=O)O)c4cc(O)cc(O)c4-c4cc3ccc4O)C(OC3CC(C)(N)C(O)C(C)O3)c3ccc(c(Cl)c3)Oc3cc2cc(c3OC2OC(CO)C(O)C(O)C2OC2CC(C)(NCc3ccc(OC4CCCCC4)cc3)C(O)C(C)O2)Oc2ccc(cc2Cl)C1O (stereo not drawn) [Compound 124, 4-cyclohexyloxybenzyl] |  |  |  |  |  |  |  |  |  |  |  |  | ≤ 0.06 µg/mL | ≤ 0.06 µg/mL | 1 µg/mL (≈ 0.562 µM) | 20 µg/mL (≈ 11.2 µM) | 16 µg/mL (≈ 8.99 µM) | 16 µg/mL (≈ 8.99 µM) | 16 µg/mL (≈ 8.99 µM) | 16 µg/mL (≈ 8.99 µM) | MIC [29]: 64 µg/mL (≈ 35.9 µM); MIC [30]: 64 µg/mL (≈ 35.9 µM) |
| CN[C@H](CC(C)C)C(=O)N[C@H]1C(=O)N[C@@H](CC(N)=O)C(=O)N[C@H]2C(=O)N[C@H]3C(=O)N[C@H](C(=O)N[C@H](C(=O)O)c4cc(O)cc(O)c4-c4cc3ccc4O)[C@H](O)c3ccc(c(Cl)c3)Oc3cc2cc(c3O[C@@H]2O[C@H](CO)[C@@H](O)[C@H](O)[C@H]2O[C@H]2C[C@](C)(N)[C@H](O)[C@H](C)O2)Oc2ccc(cc2Cl)[C@H]1O [vancomycin, reference compound] |  |  |  |  |  |  |  |  |  |  |  |  | 2 µg/mL (≈ 1.38 µM) | 1 µg/mL (≈ 0.69 µM) | 4 µg/mL (≈ 2.76 µM) | 891 µg/mL (≈ 615 µM) | 1024 µg/mL (≈ 707 µM) | 1024 µg/mL (≈ 707 µM) | 1024 µg/mL (≈ 707 µM) | 1024 µg/mL (≈ 707 µM) | MIC [29]: > 1024 µg/mL; MIC [30]: > 1024 µg/mL |
